For the test, the system named is Bsu PreQ1 RNA (MFS construct) (RNA, riboswitch) UCGGCGAUCUACGCAGCGACAUAAUAAGAGGUUCUAGCUACACCCUCUAUAAAAAACUAAUAACAACCACUUCCUAAUCUGUCAUCUUCUG
Description: magnetic force spectroscopy, fraction of high-force cycles. The following applies: 100 mM KCl, 1 mM MgCl2; 50 mM HEPES pH 7.4, 1% DMSO, 22 °C.

As for `NCc1c[nH]c2nc(N)[nH]c(=O)c12`, the KD/EC50 amounted to 58.8 ± 6.3 nM.

The record behind these values is publication PMC11408619 (2024).
